Experimental data taken from article PMC7684686 (2020).

Tests used:
[1] = test system: F21T (DNA, G4) GGGTTAGGGTTAGGGTTAGGG; experiment: FRET melting; details: K+ 10 mM (KCl), Na+ 10 mM (cacodylate), Li+ 90 µM [sic]; Na-cacodylate pH 7.2; DNA 0.2 µM, LDR 5 (1 µM ligand); error ± 0.5 °C
[2] = test system: 22AG (DNA, G4) AGGGTTAGGGTTAGGGTTAGGG; experiment: photometric titration (Specfit); details: K+ (25 mM K2HPO4, 70 mM KCl), K-phosphate pH 7.0, DMSO cosolvent (10% in legend, 5% in methods)
[3] = test system: a2 (DNA, G4) ACAGGGGTGTGGGGACAGGGGTGTGGGG; experiment: photometric titration (Specfit); details: K+ (25 mM K2HPO4, 70 mM KCl), K-phosphate pH 7.0, DMSO cosolvent (10% in legend, 5% in methods)
[4] = test system: Fa2T (DNA, G4) ACAGGGGTGTGGGGACAGGGGTGTGGGG; experiment: FRET melting; details: K+ 10 mM (KCl), Na+ 10 mM (cacodylate), Li+ 90 µM [sic]; Na-cacodylate pH 7.2; DNA 0.2 µM, LDR 5 (1 µM ligand); error ± 0.5 °C
[5] = test system: FmycT (DNA, G4) TGAGGGTGGGTAGGGTGGGTAA; experiment: FRET melting; details: K+ 10 mM (KCl), Na+ 10 mM (cacodylate), Li+ 90 µM [sic]; Na-cacodylate pH 7.2; DNA 0.2 µM, LDR 5 (1 µM ligand); error ± 0.5 °C
[6] = test system: FkrasT (DNA, G4) AGGGCGGTGTGGGAAGAGGA; experiment: FRET melting; details: K+ 10 mM (KCl), Na+ 10 mM (cacodylate), Li+ 90 µM [sic]; Na-cacodylate pH 7.2; DNA 0.2 µM, LDR 5 (1 µM ligand); error ± 0.5 °C
[7] = test system: FkitT (DNA, G4) AGGGAGGGCGCTGGGAGGAGGG; experiment: FRET melting; details: K+ 10 mM (KCl), Na+ 10 mM (cacodylate), Li+ 90 µM [sic]; Na-cacodylate pH 7.2; DNA 0.2 µM, LDR 5 (1 µM ligand); error ± 0.5 °C

| SMILES | ΔTm [1] | log Kb [2] | log Kb ([2]; overall 2:1 constant) | log Kb [3] | log Kb ([3]; overall 2:1 constant) | ΔTm [4] | ΔTm [5] | ΔTm [6] | ΔTm [7] |
| --- | --- | --- | --- | --- | --- | --- | --- | --- | --- |
| COc1ccc2cc3[n+](cc2c1OCCCn1cc(Cn2cnc4c(N)ncnc42)nn1)CCc1cc2c(cc1-3)OCO2 | 6.2 °C | 5.64 ± 0.15 log (K in M^-1) | 10.8 ± 0.2 log (K in M^-2) | 5.39 ± 0.14 log (K in M^-1) | 10.6 ± 0.2 log (K in M^-2) | – | – | – | – |
| COc1ccc2cc3[n+](cc2c1OCCn1cc(Cn2cnc4c(N)ncnc42)nn1)CCc1cc2c(cc1-3)OCO2 | 3.4 °C | 5.89 ± 0.07 log (K in M^-1) | – | 5.27 ± 0.08 log (K in M^-1) | 10.3 ± 0.1 log (K in M^-2) | −0.5 °C | – | – | – |
| COc1ccc2cc3[n+](cc2c1OCCCCCn1cc(Cn2cnc4c(N)ncnc42)nn1)CCc1cc2c(cc1-3)OCO2 | 9.9 °C | 5.09 ± 0.13 log (K in M^-1) | 10.8 ± 0.1 log (K in M^-2) | – | 11.1 ± 0.2 log (K in M^-2) | 0.0 °C | – | – | – |

Other lines, results leading:

| ΔTm [1] | log Kb [2] | log Kb ([2]; overall 2:1 constant) | log Kb [3] | log Kb ([3]; overall 2:1 constant) | ΔTm [4] | ΔTm [5] | ΔTm [6] | ΔTm [7] | SMILES |
| --- | --- | --- | --- | --- | --- | --- | --- | --- | --- |
| 6.4 °C | 5.23 ± 0.09 log (K in M^-1) | 10.7 ± 0.1 log (K in M^-2) | – | 10.6 ± 0.3 log (K in M^-2) | −0.1 °C | – | – | – | COc1ccc2cc3[n+](cc2c1OCCCCn1cc(Cn2cnc4c(N)ncnc42)nn1)CCc1cc2c(cc1-3)OCO2 |
| 12.9 °C | – | 10.7 ± 0.1 log (K in M^-2) | – | 11.1 ± 0.1 log (K in M^-2) | 1.1 °C | 5.0 °C | 10.1 °C | 2.7 °C | COc1ccc2cc3[n+](cc2c1OCCCCCCn1cc(Cn2cnc4c(N)ncnc42)nn1)CCc1cc2c(cc1-3)OCO2 |
